In patent publication US20180369166A1, “GARCINOL COMPOSITIONS FOR THERAPEUTIC MANAGEMENT OF ENDOPLASMIC RETICULUM STRESS” (priority 2017, published 2018):

Columns and labels:
[1] = tested on: HepG2 Cells; assay: Alcohol induced toxicity in HepG2 cells (SRB assay); type: cell-based, human; settings: 10 μg/ml; 1000 mM Ethanol for 72 hours; FIG. 6
Description: (§1) HepG2—human liver cell line, primary mouse hepatocytes. Min6—Mouse pancreatic beta cell line, 3T3 L1—mouse preadipocytes wee used for the experiments. Cells were maintained in DMEM containing 25 mM glucose with 10% heat-inactivated fetal calf serum with antibiotics at 37° C. and 5% CO2. When the cells were 70-80% confluent, they were trypsinized, washed and seeded in 96 well plates at a density of 5×10^3 cells per well. Stress was induced by Thapsigargin(1 uM) for 4 hours, glucose (50 and 100 mM) and alcohol (1000 mM) or paracetamol (4 mM) for 72 hours. Garcinol was added along with stressor as prophylactic treatment. As a therapeutic treatment, cells were exposed to stress agent 24 hours following which Garcinol was added to the cells. Protection was assessed by SRB assay after 72 hours of treatment
For evaluating alcohol induced toxicity, HepG2 Cells were exposed to 1000 mM of Ethanol for 72 hours in the presence of different concentrations of Garcinol and protection was assessed by SRB assay. Garcinol conferred hepatoprotection against alcohol induced toxicity by 47% at concentration of 10 μg/ml (FIG. 6).

[2] = tested on: Human Liver cell line (HepG2); assay: Thapsigargin induced protein aggregation in human liver cells (thioflavin staining, flow cytometry); type: cell-based; settings: 10 μg/ml, 1 μM Thapsigargin, FIGS. 7a and 7b
Description: as §1
IRE1α phosophorylation levels can be assessed by measuring spliced. XBP-1 product by RT PCR. PERK activation is measured by its phosphorylation levels or by measuring the ATF4 mRNA levels. Activation of ATF4 leads to increased transcription of a network of genes, including those encoding ER chaperones, such as BiP/GRP78.
Effect of Garcinol on Thapsigargin induced ER stress in human liver cells was also evaluated. […] Treated and untreated cells were analysed by Flow cytometry and RT PCR.

[3] = tested on: primary mouse hepatocytes; assay: Thapsigargin induced protein aggregation in primary mouse hepatocytes (thioflavin staining); type: cell-based; settings: 10 μg/ml; 1 μM Thapsigargin; FIG. 7c

- reduction in protein aggregation in primary mouse hepatocytes [3]: 70.4%
SMILES: C=C(C)[C@@H](CC=C(C)C)C[C@@]12C[C@@H](CC=C(C)C)C(C)(C)[C@@](CC=C(C)C)(C(=O)C(C(=O)c3ccc(O)c(O)c3)=C1O)C2=O [Garcinol]
- hepatoprotection against alcohol induced toxicity [1]: 47%
- reduction in protein aggregation in human liver cells [2]: 44.4%
